Values of other authors in patent publication US20120288450A1, “Chewing gum formula for enhancing psycho-spirituality” (priority 2009, published 2012).
“Also recorded” adds a separate entry of the source.

Assays:
[1] = in vivo
[2] = target: T1, Monoamine Oxidase Type-A (MAO-A) (Homo sapiens, UniProt P21397)
T1 sequence (P21397 1-527): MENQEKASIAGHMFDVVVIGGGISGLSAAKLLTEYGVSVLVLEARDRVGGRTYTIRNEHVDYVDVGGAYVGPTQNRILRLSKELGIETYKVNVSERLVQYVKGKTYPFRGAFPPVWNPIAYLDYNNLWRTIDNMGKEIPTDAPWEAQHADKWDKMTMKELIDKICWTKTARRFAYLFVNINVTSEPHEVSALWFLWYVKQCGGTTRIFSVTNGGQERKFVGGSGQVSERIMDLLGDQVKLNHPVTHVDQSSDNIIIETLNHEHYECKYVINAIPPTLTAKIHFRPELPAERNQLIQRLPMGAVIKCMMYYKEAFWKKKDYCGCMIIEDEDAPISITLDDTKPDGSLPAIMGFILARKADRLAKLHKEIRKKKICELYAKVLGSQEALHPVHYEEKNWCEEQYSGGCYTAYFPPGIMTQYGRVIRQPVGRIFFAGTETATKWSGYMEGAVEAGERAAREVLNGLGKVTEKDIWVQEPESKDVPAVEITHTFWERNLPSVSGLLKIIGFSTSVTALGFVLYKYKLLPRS

[3] = target: T2, Monoamine Oxidase Type-B (MAO-B) (Homo sapiens, UniProt P27338)
T2 sequence (P27338 1-520): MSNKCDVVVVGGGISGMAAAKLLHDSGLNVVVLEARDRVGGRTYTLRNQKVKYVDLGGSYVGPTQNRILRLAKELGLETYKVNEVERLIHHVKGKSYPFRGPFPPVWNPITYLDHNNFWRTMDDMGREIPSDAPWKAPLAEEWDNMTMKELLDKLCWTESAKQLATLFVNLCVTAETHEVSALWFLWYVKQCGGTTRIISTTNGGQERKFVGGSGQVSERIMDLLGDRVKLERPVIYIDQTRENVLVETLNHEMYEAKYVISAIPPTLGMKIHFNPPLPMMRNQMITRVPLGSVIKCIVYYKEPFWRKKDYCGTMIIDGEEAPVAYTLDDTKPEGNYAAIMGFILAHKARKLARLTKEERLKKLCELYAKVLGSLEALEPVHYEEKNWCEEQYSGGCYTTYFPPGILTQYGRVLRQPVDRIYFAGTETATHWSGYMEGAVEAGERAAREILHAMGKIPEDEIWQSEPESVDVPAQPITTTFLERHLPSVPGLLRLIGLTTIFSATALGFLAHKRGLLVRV

[4] = target: anandamide (CB1) receptor (Homo sapiens, UniProt P21554)
[5] = tested on: various different bioreceptor sites; conditions: sites commonly effected by most other psychoactive compounds
[6] = moisture, light, and radiation
[7] = tested on: dopamine in the nucleus accumbens; conditions: in vivo
[8] = mice
[9] = in vivo; remark: listed apart in the source
[10] = ingested orally
[11] = in vivo; remark: listed apart in the source
[12] = in vivo; remark: listed apart in the source

Chain of anandamide (CB1) receptor (P21554 whole entry, species assumed): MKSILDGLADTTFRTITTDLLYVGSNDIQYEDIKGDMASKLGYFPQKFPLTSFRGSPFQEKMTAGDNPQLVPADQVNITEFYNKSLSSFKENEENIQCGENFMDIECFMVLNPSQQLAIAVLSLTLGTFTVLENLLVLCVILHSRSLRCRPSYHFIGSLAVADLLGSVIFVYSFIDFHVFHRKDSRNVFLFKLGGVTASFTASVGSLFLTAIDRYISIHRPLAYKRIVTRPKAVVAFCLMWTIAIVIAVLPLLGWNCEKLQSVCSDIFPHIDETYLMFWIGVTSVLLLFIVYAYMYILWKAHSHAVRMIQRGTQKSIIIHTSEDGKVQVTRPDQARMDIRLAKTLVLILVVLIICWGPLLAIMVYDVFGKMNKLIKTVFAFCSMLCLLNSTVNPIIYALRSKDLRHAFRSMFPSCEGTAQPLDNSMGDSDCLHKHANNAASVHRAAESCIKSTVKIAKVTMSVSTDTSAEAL

For `COC(=O)[C@@H]1C[C@H](OC(C)=O)C(=O)[C@H]2[C@@]1(C)CC[C@H]1C(=O)O[C@H](c3ccoc3)C[C@]21C` [Salvinorin A], the toxicity [1] is given as “almost entirely non-toxic; also recorded: ultra low toxicity”, the “inhibition of MAO-A enzyme” value [2] is given as “does not inhibit” and the “inhibition of MAO-B enzyme” value [3] is given as “does not inhibit”. For the same molecule, the solubility in acetone was “highly soluble”, the “solubility in water and saliva” value (when still embedded in the leaf) was “substantially water- and saliva-insoluble” and the “active binding to the anandamide (CB1) receptor site” value [4] was “nor has it shown any active binding”. The “competitive inhibition of reference target compounds at bioreceptor sites” value [5] was “has not been shown to incur any significant, competitive inhibition”, the stability of potency [6] was “diminish the potency” and the “release of dopamine in the nucleus accumbens” value [7] was “does not induce the release of dopamine”. For the same molecule, the “anxiolytic and anti-depressant findings” value [8] was “anxiolytic and anti-depressant”, the “habit forming / addictiveness” value [9] was “non-habit forming and thus non-addictive” and the “entry into the blood stream” value [10] was “doesn't efficiently enter the blood stream”. For the same molecule, the minimal dose [11] was 0.2 mg, the “effect on cocaine-produced drug seeking” value [12] was “successful in decreasing the effect of cocaine-produced drug seeking” and the “active binding to the MK-801 receptor site” value (MK-801 receptor sites) was “nor has it shown any active binding”.

In the case of `COC(=O)[C@@H]1C[C@H](O)C(=O)[C@H]2[C@@]1(C)CC[C@H]1C(=O)O[C@H](c3ccoc3)C[C@]21C` [Salvinorin “B”], the “psychoactive effect / activity” value [11] is given as “not known to induce psychoactive effect”.
